The values below are quoted from earlier work in patent publication US20070225337A1, “Novel Co-Precipitate of Amorphous Rosiglitazone” (SANDOZ AG, priority 2004, published 2007).

The conditions of series [1]: compared with the corresponding free base.

With `CN(CCOc1ccc(CC2SC(=O)NC2=O)cc1)c1ccccn1.O=C(O)/C=C\C(=O)O` (centres unmarked) [Rosiglitazone maleate, 5-[4-[2-[N-methyl-N-(2-pyridyl)amino]ethoxy]benzyl]thiazolidine-2,4-dione maleate], the “stability in the solid form” value is reported as “good stability in the solid form”. Besides, in series [1], the solubility in water result is on record as “significantly more soluble in water than the corresponding free base”.
